Assay results from paper PMC8338929, “Acetylation turns leucine into a drug by membrane transporter switching” (Scientific Reports, 2021).

Molecular target: T1, Human OAT1 (SLC22A6) (Homo sapiens, UniProt Q4U2R8)
T1 construct: host or cells: HEK-293
T1 sequence (Q4U2R8 1-563): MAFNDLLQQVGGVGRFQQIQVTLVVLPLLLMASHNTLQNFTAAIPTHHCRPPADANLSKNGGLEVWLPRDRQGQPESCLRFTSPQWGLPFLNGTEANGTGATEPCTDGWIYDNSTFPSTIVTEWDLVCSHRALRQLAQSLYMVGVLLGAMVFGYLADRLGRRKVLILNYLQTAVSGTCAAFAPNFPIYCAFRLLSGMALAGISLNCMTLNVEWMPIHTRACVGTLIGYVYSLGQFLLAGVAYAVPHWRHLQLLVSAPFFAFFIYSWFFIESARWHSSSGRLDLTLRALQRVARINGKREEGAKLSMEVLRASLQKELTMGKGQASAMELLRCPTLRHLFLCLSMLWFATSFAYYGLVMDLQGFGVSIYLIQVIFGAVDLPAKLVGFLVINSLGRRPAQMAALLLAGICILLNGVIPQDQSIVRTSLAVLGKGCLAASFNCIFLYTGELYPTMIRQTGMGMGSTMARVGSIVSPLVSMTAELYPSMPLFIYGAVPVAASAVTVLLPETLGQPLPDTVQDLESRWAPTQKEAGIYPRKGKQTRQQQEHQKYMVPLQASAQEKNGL
Experiment: OAT1-mediated cellular uptake in overexpressing HEK-293 cells
Format: cell-based
Protocol: Cells were grown in DMEM (Gibco 4196, high glucose, without sodium pyruvate) supplemented with MEM non-essential amino acids and 10% fetal bovine serum. Cells were re-fed with fresh medium after attachment (4–6 h post-seeding). Cell were plated at a density of 4 × 10^5/well in 24-well plates coated with poly-D-lysine. Transporter assays were conducted in 400 µL of HBSS supplemented with 10 mM Hepes, pH 7.4
The known probe substrates used as positive controls were 3 μM chlorothiazide for OAT1, 2 μM estrone-3-sulfate for OAT3, 10 µM [^3H]gabapentin for LAT1, 50 µM [^3H]Gly-Sar for PepT1, 500 µM thiophene-2-glyoxylic acid for MCT1. The known inhibitors used as controls for each transporter were 100 μM diclofenac for OAT1 and OAT3, 10 µM JPH203 for LAT1 and 200 µM losartan for PepT1. All incubations were in triplicate and contained 1% (OAT1 and OAT3) or 0.5% DMSO (LAT, PepT1 and MCT1). The duration of uptake was 5 min for OAT1 and OAT3, 3 min for LAT1 and PepT1 and 1 min for MCT1. Assays were performed at 37 °C with no shaking, except MCT1 at room temperature. To determine uptake due to the overexpressed transporter per se, uptake was taken as the difference between accumulation between transfected and nontransfected cells in parallel experiments at the same concentration and time. To terminate uptake the plate was placed on ice and cells washed twice with ice-cold transport buffer. […]

CC(=O)N[C@@H](CC(C)C)C(=O)O [N-acetyl-L-leucine]
Vmax OAT1 uptake (Michaelis-Menten fit): 173
substrate of OAT1 (uptake) (pH 7.4, 5 min): substrate
